Laboratory results taken from article PMC8592419 (PLoS ONE, 2021).
Values after ≈ are worked out from the molar mass of the structure shown. Read-outs that look alike come from different tables or passages of the source.

Experiments:
[1] = test system: M. abscessus clinical isolate MAB16; assay: In vitro susceptibility testing (DST), CLSI broth microdilution; format: cell-based, M. abscessus subsp. massiliense; parameters: key to DST profile, interpretation, Day 3 / DST profile, interpretation, Day 5 / DST profile, interpretation, Day 14: S, susceptible; I, intermediate; R, resistant; settings: for MIC: Mycobacteroides abscessus
Procedure: (§1) Drug susceptibility testing (DST) was performed according to the Clinical and Laboratory Standards Institute (CLSI) guidelines M24-A2 [42] using the broth microdilution method to determine the minimum inhibitory concentration (MIC). […] Colonies were grown at an adjusted cell density to a 0.5 McFarland standard and further diluted to 5×10^5 CFU/ml. […] These were then incubated at 37°C for 3, 5 and 14 days. The MIC was defined as the concentration in which no visible growth was observed. The results were interpreted according to the guidelines of CLSI. Inducible resistance was inferred by changes in MIC values from being susceptible at day 3 to resistant at day 14.

[2] = test system: M. abscessus clinical isolate MAB13; assay: as above; format: cell-based, M. abscessus subsp. massiliense; parameters: key to DST profile, interpretation, Day 3 / DST profile, interpretation, Day 5 / DST profile, interpretation, Day 14: S, susceptible; I, intermediate; R, resistant; settings: for MIC: Mycobacteroides abscessus
Procedure: as §1

[3] = 72 h, day 3, read-out: DST profile, MIC value, Day 3
[4] = 120 h, day 5, read-out: DST profile, MIC value, Day 5
[5] = 336 h, day 14, read-out: DST profile, MIC value, Day 14

In the case of `CC[C@H]1OC(=O)[C@H](C)[C@@H](O[C@H]2C[C@@](C)(OC)[C@@H](O)[C@H](C)O2)[C@H](C)[C@@H](O[C@@H]2O[C@H](C)C[C@H](N(C)C)[C@H]2O)[C@](C)(OC)C[C@@H](C)C(=O)[C@H](C)[C@@H](O)[C@]1(C)O` [CLA, Clarithromycin], the MIC [1, 3] is reported as 0.2 µg/mL (≈ 0.267 µM), the MIC [1, 4] is reported as 2 µg/mL (≈ 2.67 µM) and the MIC [1, 5] is reported as 2 µg/mL (≈ 2.67 µM). The “DST profile, interpretation, Day 3” value ([1]; day 3, CLSI interpretation) was “S”, the “DST profile, interpretation, Day 5” value ([1]; day 5, CLSI interpretation) was “S” and the “DST profile, interpretation, Day 14” value ([1]; day 14, CLSI interpretation) was “S”. It also gave an MIC [2, 3] of 8 µg/mL (≈ 10.7 µM), an MIC [2, 4] of 32 µg/mL (≈ 42.8 µM) and an MIC [2, 5] of 32 µg/mL (≈ 42.8 µM). For the same compound, the “DST profile, interpretation, Day 3” value ([2]; day 3, CLSI interpretation) was “R”, the “DST profile, interpretation, Day 5” value ([2]; day 5, CLSI interpretation) was “R” and the “DST profile, interpretation, Day 14” value ([2]; day 14, CLSI interpretation) was “R”.
